Test results taken from paper PMC9501356, “New Sulfamethoxazole Derivatives as Selective Carbonic Anhydrase IX and XII Inhibitors: Design, Synthesis, Cytotoxic Activity and Molecular Modeling” (Pharmaceuticals, 2022).
In brackets after ≈: the same amount, converted by molar mass. Read-outs that look alike come from different tables or passages of the source.

Tests used:
hCA II = target: T1, hCA II (Homo sapiens, UniProt P00918); experiment: CAII inhibitory assay (p-nitrophenyl acetate); format: biochemical; conditions: average ± SEM, three independent experiments; read-out: Carbonic Anhydrase IC50 (uM) hCA II
T1 construct: purchased BPS bioscience (CA, USA)
Description: CAII was assayed following the manufacturer’s instruction and reported method (Supplementary Material Section S2) (Table 2). […]
(§1) Carbonic Anhydrase (CA) catalyzes the reversible reaction of CO2 +
(§2) H2O = HCO3- + H+. […]
(§3) 400 nm[40] and the activity was calculated using the following equation: […]
= HCO3- + H+. […]
(§4) 96 well plate. […]
(§5) 400 nm[41] and the activity was calculated using the following equation: […]
S2.2.5. CAII inhibitory assay
CAII was assayed following the manufacturer’s instruction. A amount
of 1,400 pmol/min/µg assay mixture containing 100 mM NaCl, 15 mM Tris-

[1] = target: T2, recombinant Human Carbonic Anhydrase I (Homo sapiens, UniProt P00915); experiment: CA1 inhibitory assay (4-nitrophenyl acetate esterase); format: biochemical; conditions: average ± SEM, three independent experiments; read-out: Carbonic Anhydrase IC50 (uM) hCA I
T2 construct: purchased R and D system (MN, USA)
T2 sequence (P00915 whole entry): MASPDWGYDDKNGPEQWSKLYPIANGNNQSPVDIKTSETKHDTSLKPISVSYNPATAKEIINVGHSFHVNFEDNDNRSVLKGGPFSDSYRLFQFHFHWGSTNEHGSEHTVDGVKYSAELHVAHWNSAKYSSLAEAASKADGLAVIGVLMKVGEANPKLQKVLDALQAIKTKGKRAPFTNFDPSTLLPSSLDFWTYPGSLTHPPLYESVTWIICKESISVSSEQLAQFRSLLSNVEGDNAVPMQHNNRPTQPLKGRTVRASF
Description: The hCA I was assayed following the manufacturer’s instruction and reported method (Supplementary Material Section S2) (Table 2). […]
as §1
H2O = HCO3- + H+. Carbonic Anhydrase I (CAI) was measured following the manufacturer’s instruction. […]
as §3
S2.2.4. CA1 inhibitory assay
(§6) Carbonic Anhydrase (CA) cataly zes the reversible reaction of CO2 + H2O = HCO3- + H+. Carbonic Anhydrase I (CAI) was measured following the […]
Tris, 75 mM NaCl, pH 7.5). The substrate (4-Nitroph enyl acetate, 4NPA, 100 mM stock in acetone) was diluted in 2 mM in assay buffer. The reaction was started by adding 50 µL of 2 mM substrate with 50 µL of 100 ng/µL rhCAI in […]
as §4, §5

hCA IX = target: T3, hCA IX (Homo sapiens, UniProt Q16790); experiment: hCA IX inhibitory assay; format: biochemical; conditions: average ± SEM, three independent experiments; read-out: Carbonic Anhydrase (IC50, nM) CA-IX
T3 construct: purchased BPS bioscience (CA, USA)
Description: The hCA IX was assayed following the manufacturer’s instruction and reported method. (Table 1, Figure 3A,B) (Supplementary Material Section S2). […]
mixture was incubated for 30 min at room temperature and the absorbance was measured at 405nm.
(§7) S2.2.3. hCAXII inhibitory assay
as §1
H2O = HCO3- + H+. Carbonic Anhydrase I (CAI) was measured following the manufacturer’s instruction. In brief, recombinant Human
Carbonic Anhydrase XII (rh CAXII) was diluted to […] in assay buffer (12.5 mM Tris, 75 mM NaCl, pH 7.5). The substrate (4-Nitrophenyl acetate, 4NPA, 100 mM stock in acetone) was diluted in 2 mM in assay buffer. The reaction was started by adding 50 µL of 2 mM substrate with 50 µL of 20 ng/µL rhCAXII in 96 well plate. Substrate blank containing 50 µL of assay buffer and 50 µL of substrate was included. The kinetics for 5 min of the reaction mixtures were measured at wavelength of 400 nm[40] and the activity was calculated using the following equation: […]
as §6, §5
CAII was assayed following the manufacturer’s instruction. […] Incubate for 30 min at RT and the resulted absorbance was measured at 405 nm. […]

[2] = MTT cytotoxicity assay on MCF10a; format: cell-based; conditions: human, MCF10a normal breast cells, MCF10a normal breast cell line
Description: (§8) Suppling, specification and incubation of MCF7 and MCF10a cell lines were carried out according to the method mentioned in detail in Supplementary Material Section S2.
(§9) MTT assay is a method used for in vitro cytotoxicity of different compounds. The method details are illustrated in Supplementary Material Section S2. […]
(§10) Carbonic Anhydrase (CA) catalyzes the reversible reaction of CO2 + […]
as §2
(§11) 400 nm[40] and the activity was calculated using the following equation: […] = HCO3- + H+. […]
as §4, §5
(§12) S2.2.6. Cell culture Protocol
(§13) MCF7 and MCF10a cell lines were obtained from American Type
(§14) Culture Collection, the cultured cells were grown using DMEM
(§15) (Invitrogen/Life Technologies) in 10% fetal bovine serum (FBS), 10 μg/ml of insulin (Sigma), and 1% penicillin-streptomycin antibiotics. Other chemicals and reag ents were from ob tained f rom S igma or In vitrogen. Cells d en sity was 1.2 – 1.8 × 10^3 cells/well in a volume of 100 µl complete growth medium + 100 μl of the tested compound/well in a 96-well plate for 24 hours performing […]
(§16) assay. After treatment of cells with the serial concentrations of the tested compounds, incubation for 48 h at 37 °C is carried out.
(§17) S2.2.7. MTT – Cytotoxicity assay protocol
(§18) MTT assay is a method used for in vitro cytotoxicity of different compounds. MTT vial was reconstituted in 3 ml growth media and diluted
(§19) MTT in an amount equal to 10% of the culture medium volume. After 4hrs incubation of the reagent with the treated MCF7 and MCF10a cells, culture media was removed from incubator and dissolve the resulting formazan crystals by adding an amount of MTT solubilizing solution equal volume with the original culture medium.

MCF7 cells = experiment: MTT cytotoxicity assay on MCF7 (hypoxia and normoxia); format: cell-based; conditions: Homo sapiens
Description: as §8, §9, §10, §2, §11, §4, §5, §12, §13, §14, §15, §16, §17
MTT assay is a method used for in vitro cytotoxicity of different compounds. […]

MCF10a cells = experiment: MTT cytotoxicity assay on MCF10a; format: cell-based; conditions: MCF10a normal breast cell line
Description: as §8, §9, §10, §2, §11, §4, §5, §12, §13, §14, §15, §16, §17, §18, §19

[3] = target: T4, recombinant Human Carbonic Anhydrase XII (Homo sapiens, UniProt O43570); experiment: hCA XII inhibitory assay (4-nitrophenyl acetate esterase); format: biochemical; conditions: average ± SEM, three independent experiments; read-out: Carbonic Anhydrase (IC50, nM) CA-XII
T4 construct: purchased R and D system (MN, USA)
T4 sequence (O43570 25-354): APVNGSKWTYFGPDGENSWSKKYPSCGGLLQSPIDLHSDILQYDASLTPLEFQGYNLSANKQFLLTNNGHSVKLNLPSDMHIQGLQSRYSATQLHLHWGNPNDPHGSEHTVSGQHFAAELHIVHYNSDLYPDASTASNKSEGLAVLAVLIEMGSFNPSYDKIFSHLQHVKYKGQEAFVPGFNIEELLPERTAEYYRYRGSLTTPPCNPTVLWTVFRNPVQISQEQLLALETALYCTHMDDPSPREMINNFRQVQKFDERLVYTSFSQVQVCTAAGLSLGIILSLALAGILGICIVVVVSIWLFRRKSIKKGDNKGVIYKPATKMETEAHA
Description: mixture was incubated for 30 min at room temperature and the absorbance […]
as §7, §1
H2O = HCO3- + H+. Carbonic Anhydrase I (CAI) was measured following the manufacturer’s instruction. In brief, recombinant Human […]
mM Tris, 75 mM NaCl, pH 7.5). The substrate (4-Nitrophenyl acetate, 4NPA, 100 mM stock in acetone) was diluted in 2 mM in assay buffer. The reaction was started by adding 50 µL of 2 mM substrate with 50 µL of 20 ng/µL rhCAXII in 96 well plate. Substrate blank containing 50 µL of assay buffer and 50 µL of substrate was included. The kinetics for 5 min of the reaction mixtures were measured at wavelength of 400 nm[40] and the activity was calculated using the following equation:
Specific Activity (pmol/min/µg) = Adjusted Vmax (OD/ mi n) x Conver sion Factor (pmol /OD) amount of enzyme (µg) S2.2.4. CA1 inhibitory assay
as §6
Tris, 75 mM NaCl, pH 7.5). The substrate (4-Nitroph enyl acetate, 4NPA, 100 mM stock in acetone) was diluted in 2 mM in assay buffer. The reaction was started by adding 50 µL of 2 mM substrate with 50 µL of 100 ng/µL rhCAI in 96 well plate. […]
as §5

Row | SMILES | IC50 (hCA II) | IC50 [1] | IC50 (hCA IX) | IC50 at 48 h [2] | IC50 (MCF7 cells; MCF7, MCF7, hypoxia, read-out: Cytotoxicity (IC50 µg/mL) MCF7 Hypoxia) | IC50 (MCF7 cells; MCF7, MCF7, normoxia, read-out: Cytotoxicity (IC50 µg/mL) MCF7 Normoxia) | Cytotoxicity (IC50 µg/mL) MCF10a (MCF10a cells) | IC50 [3]
1 | C=CCN(c1cc(C)on1)S(=O)(=O)c1ccc(N)cc1 [S2, N-Allyl-4-amino-N-(5-methylisoxazol-3-yl)benzenesulfonamide] | 0.102 ± 0.006 µM | 0.177 ± 0.008 µM |  |  |  |  |  | 
2 | CCCN(c1cc(C)on1)S(=O)(=O)c1ccc(N)cc1 [S3, 4-Amino-N-(5-methylisoxazol-3-yl)-N-propylbenzenesulfonamide] | 0.199 ± 0.011 µM | 0.08 ± 0.003 µM | 0.042 nM |  |  |  |  | 
3 | Cc1ccc(C(=O)Nc2ccc(S(=O)(=O)Nc3cc(C)on3)cc2)cc1 [S8, 4-Methyl-N-(4-(N-(5-methylisoxazol-3-yl)sulfamoyl)phenyl)benzamide] | 1.85 ± 0.12 µM | 1.02 ± 0.049 µM |  | 31.6 ± 1.71 µg/mL (≈ 85.2 µM) | 3.64 ± 0.2 µg/mL (≈ 9.8 µM) | 7.68 ± 0.41 µg/mL (≈ 20.7 µM) |  | 
4 | Cc1cc(NS(=O)(=O)c2ccc(NC(=O)c3ccc(Cl)cc3)cc2)no1 [S9, 4-Chloro-N-(4-(N-(5-methylisoxazol-3-yl)sulfamoyl)phenyl)benzamide] | 0.543 ± 0.03 µM | 0.121 ± 0.006 µM |  | 34.7 ± 1.87 µg/mL (≈ 88.6 µM) |  |  | 46.72 ± 2.52 µg/mL | 
5 | Cc1ccc(/C=C2\SC(Nc3ccc(S(=O)(=O)Nc4cc(C)on4)cc3)=NC2=O)cc1 [S19, (Z)-4-((5-(4-Methylbenzylidene)-4-oxo-4,5-dihydrothiazol-2-yl)amino)-N-(5-methylisoxazol-3-yl)benzenesulfonamide] |  |  |  |  |  |  |  | 0.9 nM
